Data from ChEMBL document CHEMBL1287733, “Implication of the disulfide bridge in trypsin inhibitor SFTI-1 in its interaction with serine proteinases” (Bioorg Med Chem, 2010).
Calls of active or inactive are those of the source. The calls are words filed in the database; no cut-off is given here. Starred links: 1 amine or outer side, 2 acyl side, 3 side chain; linkers in the order of their positions; H or OH if unused. Non-standard residues stand in square brackets, D forms with d. Residues, ends and D or L forms follow the SMILES beside them. N(2-mercaptoethyl)Gly = O=C(CN(CCS[*:3])[*:1])[*:2]; hCys = N[C@@H](CCS)C(=O)O; Nphe = O=C(O)CNCc1ccccc1; Nlys = NCCCCNCC(=O)O

Species: Bos taurus
Experiment: Inhibition of bovine trypsin

| Compound | Ka |
| --- | --- |
| CC[C@H](C)[C@@H]1NC(=O)[C@@H]2CCCN2C(=O)[C@@H]2CCCN2C(=O)[C@H]([C@@H](C)CC)NC(=O)[C@H](CO)NC(=O)[C@H](CCCCN)NC(=O)[C@H]([C@@H](C)O)NC(=O)[C@@H]2CSSC[C@H](NC1=O)C(=O)N[C@@H](Cc1ccccc1)C(=O)N1CCC[C@H]1C(=O)N[C@@H](CC(=O)O)C(=O)NCC(=O)N[C@@H](CCCNC(=N)N)C(=O)N2 | 1.1 ×10¹⁰ /M |
| CC[C@H](C)[C@@H]1NC(=O)[C@@H]2CCCN2C(=O)[C@@H]2CCCN2C(=O)[C@H]([C@@H](C)CC)NC(=O)[C@H](CO)NC(=O)[C@H](CCCCN)NC(=O)[C@H]([C@@H](C)O)NC(=O)[C@H](CS)NC(=O)[C@H](CCCNC(=N)N)NC(=O)CNC(=O)[C@H](CC(=O)O)NC(=O)[C@@H]2CCCN2C(=O)[C@H](Cc2ccccc2)NC(=O)[C@H](CS)NC1=O | 9.9 ×10⁹ /M |
| CC[C@H](C)[C@@H]1NC(=O)[C@@H]2CCCN2C(=O)[C@@H]2CCCN2C(=O)[C@H]([C@@H](C)CC)NC(=O)[C@H](CO)NC(=O)[C@H](CCCCN)NC(=O)[C@H]([C@@H](C)O)NC(=O)CN(CCS)C(=O)[C@H](CCCNC(=N)N)NC(=O)CNC(=O)[C@H](CC(=O)O)NC(=O)[C@@H]2CCCN2C(=O)[C@H](Cc2ccccc2)NC(=O)CN(CCS)C1=O (cyclo(DGR[N(2-mercaptoethyl)Gly]TKSIPPI[N(2-mercaptoethyl)Gly]FP)) | inactive |
| CC[C@H](C)[C@@H]1NC(=O)[C@@H]2CCCN2C(=O)[C@@H]2CCCN2C(=O)[C@H]([C@@H](C)CC)NC(=O)[C@H](CO)NC(=O)CN(CCCCN)C(=O)[C@H]([C@@H](C)O)NC(=O)CN(CCS)C(=O)[C@H](CCCNC(=N)N)NC(=O)CNC(=O)[C@H](CC(=O)O)NC(=O)[C@@H]2CCCN2C(=O)[C@H](Cc2ccccc2)NC(=O)CN(CCS)C1=O (cyclo(DGR[N(2-mercaptoethyl)Gly]T[Nlys]SIPPI[N(2-mercaptoethyl)Gly]FP)) | inactive |

Species: Bos taurus
Experiment: Inhibition of bovine chymotrypsin

| Compound | Ka |
| --- | --- |
| CC[C@H](C)[C@@H]1NC(=O)[C@@H]2CCCN2C(=O)[C@@H]2CCCN2C(=O)[C@H]([C@@H](C)CC)NC(=O)[C@H](CO)NC(=O)CN(Cc2ccccc2)C(=O)[C@H]([C@@H](C)O)NC(=O)[C@@H](C(C)(C)S)NC(=O)[C@H](CCCNC(=N)N)NC(=O)CNC(=O)[C@H](CC(=O)O)NC(=O)[C@@H]2CCCN2C(=O)[C@H](Cc2ccccc2)NC(=O)[C@@H](C(C)(C)S)NC1=O | 3.11 ×10⁵ /M |
| CC[C@H](C)[C@@H]1NC(=O)[C@@H]2CCCN2C(=O)[C@@H]2CCCN2C(=O)[C@H]([C@@H](C)CC)NC(=O)[C@H](CO)NC(=O)CN(Cc2ccccc2)C(=O)[C@H]([C@H](C)O)NC(=O)[C@H](CS)NC(=O)[C@H](CCCNC(=N)N)NC(=O)CNC(=O)[C@H](CC(=O)O)NC(=O)[C@@H]2CCCN2C(=O)[C@H](Cc2ccccc2)NC(=O)[C@H](CS)NC1=O | 3.9 ×10⁸ /M |
| CC[C@H](C)[C@@H]1NC(=O)[C@@H]2CCCN2C(=O)[C@@H]2CCCN2C(=O)[C@H]([C@@H](C)CC)NC(=O)[C@H](CO)NC(=O)[C@H](CCCCN)NC(=O)[C@H]([C@@H](C)O)NC(=O)[C@@H]2CSSC[C@H](NC1=O)C(=O)N[C@@H](Cc1ccccc1)C(=O)N1CCC[C@H]1C(=O)N[C@@H](CC(=O)O)C(=O)NCC(=O)N[C@@H](CCCNC(=N)N)C(=O)N2 | 5.2 ×10⁶ /M |
| CC[C@H](C)[C@@H]1NC(=O)[C@@H]2CCCN2C(=O)[C@@H]2CCCN2C(=O)[C@H]([C@@H](C)CC)NC(=O)[C@H](CO)NC(=O)[C@H](Cc2ccccc2)NC(=O)[C@H]([C@@H](C)O)NC(=O)CN(CCS)C(=O)[C@H](CCCNC(=N)N)NC(=O)CNC(=O)[C@H](CC(=O)O)NC(=O)[C@@H]2CCCN2C(=O)[C@H](Cc2ccccc2)NC(=O)[C@H](CS)NC1=O (cyclo(CFPDGR[N(2-mercaptoethyl)Gly]TFSIPPI)) | inactive |
| CC[C@H](C)[C@@H]1NC(=O)[C@@H]2CCCN2C(=O)[C@@H]2CCCN2C(=O)[C@H]([C@@H](C)CC)NC(=O)[C@H](CO)NC(=O)[C@H](Cc2ccccc2)NC(=O)[C@H]([C@@H](C)O)NC(=O)CN(CCS)C(=O)[C@H](CCCNC(=N)N)NC(=O)CNC(=O)[C@H](CC(=O)O)NC(=O)[C@@H]2CCCN2C(=O)[C@H](Cc2ccccc2)NC(=O)CN(CCS)C1=O (cyclo(DGR[N(2-mercaptoethyl)Gly]TFSIPPI[N(2-mercaptoethyl)Gly]FP)) | inactive |

Other lines, results leading:

| Ka | Compound |
| --- | --- |
| 1.15 ×10⁵ /M | CC[C@H](C)[C@@H]1NC(=O)[C@@H]2CCCN2C(=O)[C@@H]2CCCN2C(=O)[C@H]([C@@H](C)CC)NC(=O)[C@H](CO)NC(=O)CN(Cc2ccccc2)C(=O)[C@H]([C@@H](C)O)NC(=O)[C@@H](C(C)(C)S)NC(=O)[C@H](CCCNC(=N)N)NC(=O)CNC(=O)[C@H](CC(=O)O)NC(=O)[C@@H]2CCCN2C(=O)[C@H](Cc2ccccc2)NC(=O)[C@H](CS)NC1=O |
| 4.9 ×10⁶ /M | CC[C@H](C)[C@@H]1NC(=O)[C@@H]2CCCN2C(=O)[C@@H]2CCCN2C(=O)[C@H]([C@@H](C)CC)NC(=O)[C@H](CO)NC(=O)[C@H](CCCCN)NC(=O)[C@H]([C@@H](C)O)NC(=O)[C@H](CS)NC(=O)[C@H](CCCNC(=N)N)NC(=O)CNC(=O)[C@H](CC(=O)O)NC(=O)[C@@H]2CCCN2C(=O)[C@H](Cc2ccccc2)NC(=O)[C@H](CS)NC1=O |
| 4.79 ×10⁸ /M | CC[C@H](C)[C@@H]1NC(=O)[C@@H]2CCCN2C(=O)[C@@H]2CCCN2C(=O)[C@H]([C@@H](C)CC)NC(=O)[C@H](CO)NC(=O)[C@H](Cc2ccccc2)NC(=O)[C@H]([C@@H](C)O)NC(=O)[C@H](CS)NC(=O)[C@H](CCCNC(=N)N)NC(=O)CNC(=O)[C@H](CC(=O)O)NC(=O)[C@@H]2CCCN2C(=O)[C@H](Cc2ccccc2)NC(=O)CN(CCS)C1=O (cyclo(CTFSIPPI[N(2-mercaptoethyl)Gly]FPDGR)) |
| inactive | CC[C@H](C)[C@@H]1NC(=O)[C@@H]2CCCN2C(=O)[C@@H]2CCCN2C(=O)[C@H]([C@@H](C)CC)NC(=O)[C@H](CO)NC(=O)CN(Cc2ccccc2)C(=O)[C@H]([C@@H](C)O)NC(=O)CN(CCS)C(=O)[C@H](CCCNC(=N)N)NC(=O)CNC(=O)[C@H](CC(=O)O)NC(=O)[C@@H]2CCCN2C(=O)[C@H](Cc2ccccc2)NC(=O)CN(CCS)C1=O (cyclo(DGR[N(2-mercaptoethyl)Gly]T[Nphe]SIPPI[N(2-mercaptoethyl)Gly]FP)) |
| 7.56 ×10⁹ /M | CC[C@H](C)[C@@H]1NC(=O)[C@@H]2CCCN2C(=O)[C@@H]2CCCN2C(=O)[C@H]([C@@H](C)CC)NC(=O)[C@H](CO)NC(=O)[C@H](Cc2ccccc2)NC(=O)[C@H]([C@@H](C)O)NC(=O)[C@H](CCS)NC(=O)[C@H](CCCNC(=N)N)NC(=O)CNC(=O)[C@H](CC(=O)O)NC(=O)[C@@H]2CCCN2C(=O)[C@H](Cc2ccccc2)NC(=O)[C@H](CCS)NC1=O (cyclo(DGR[hCys]TFSIPPI[hCys]FP)) |
